Data set [1] concerns K-562 cells. Put plainly: MTS cytotoxicity assay. The class given is cell-based. As to conditions: 3 days exposure. The source says:
di-Methylthiozol Tetrazolium (MTT assay): Proliferation assays are used in cell biology for the study of growth factors, cytokines and cytotoxic agents. There are several ways to measure the number of cells in a proliferation assay. MTT assay is a rapid and convenient method of determining viable cells in proliferation, cell attachment, chemotaxis and apoptosis assays.
di-Methylthiozol Tetrazolium Salt (MTS assay): MTS assay is a rapid and convenient method of determining viable cells in proliferation or cytotoxic assays. The use of this analog of MTT, provides a stable reaction over time. MTS assay is based on the cellular conversion of a tetrazolium salt into a formozan product that is soluble in tissue culture media and can easily be detected using a 96-well plate reader. This conversion is presumably accomplished by NADPH or NADH produced by dehydrogenases enzymes present in metabolically active cells. MTS is preferred over MTT because the MTS formazan product is soluble in tissue culture medium. In addition the MTS assay require fewer steps than MTT assay. Consequently, we have used MTS for our testing. MTS assay-Method: K-562 (typical cancer cell line used for cytotoxicity assays) cells were seeded in 96-well plates at a concentration of 2.5×10^4 cells/ml. Oosporein and Actinomycin D (a known cytotoxic compound) were prepared in 10% DMSO and added to cells the next day (final DMSO concentration was 0.5%). Oosporein was assessed at a final concentration on the cells of 100, 50, 25, 12.5, 6.25 and 3.125 μg/ml (2-fold dilutions) in quadruplicate. A known toxic agent, Actinomycin D, was added at 100, 20, 4, 0.8 and 0.16 ng/ml (5-fold dilutions). After 3 days exposure to test compound or controls, MTS reagent was prepared and added to the cells. After 3 hours, the accumulation of formazan product was determined by measuring the absorbance at 490 nm. The background absorbance of the cells detected at 630 nm was then subtracted from the initial 490 nm reading. Percent toxicity was determined using the following formula: [formula] [formula] […]
(In general: Tetrazolium assays rely on reduction of a dye to a coloured formazan, in cell work by metabolically active cells.)

The subject of data set [2] is strain NC of Puccinia coronata. Briefly: Greenhouse experiment, pure compound Oosporein sprayed on inoculated oat seedlings (telia induction). The format is in vivo, Puccinia coronata on oat (cv. Brooks) seedlings. As to conditions: table title strain NC (method text: strain MN); for Percentage of plants with telia: oat cv. Brooks seedlings, pure compound at 100 μg/ml applied four days after inoculation, mean of five replicates; for Telia intensity Rating: scale 0 = healthy to 3.0 = >15% of leaf area with telia, pure compound 100 μg/ml. The method, then: iv) Both crude extracts and fractions were tested at 10 mg/ml and the pure compound at 100 μg/ml
1.c. Greenhouse Experiments with the Pure Compound, Oosporein Isolated from of A. album (Aa 100 Isolate):
The pure compound (Oosporein) isolated from A. album (Aa 100) dissolved in 500 μl of DMSO and 9.5 ml of sterile distilled water (SDW) with 20 μl of Tween 80. The controls consisted of 500 μl of DMSO in 9.5 ml of SDW with 20 μl of Tween 80. and 10 ml of SDW with 20 μl of Tween 80. Ten ml of each treatment were atomized on 2-3 week-old, oat seedlings previously inoculated with strain MN of Puccinia coronata. Treatments were applied four days after inoculation when flecking symptoms of infection were present, but before uredia were observed (FIG. 1). There were five replicates of each treatment arranged in a randomized complete block design.

The test system of data set [3] is rusts. Briefly: Conversion of infective urediniospores to non-infective teliospores in rusts.

The structures appear in SMILES notation. Starred links: 1 amine or outer side, 2 acyl side, 3 side chain; linkers in the order of their positions; H or OH if unused. Positions of bridges follow the written chain, without caps; N, C: chain ends. Non-standard residues stand in square brackets, D forms with d. Residues, ends and D or L forms follow the SMILES beside them. Chains are numbered I, II in the order given. Actinocin(9to1) = Cc1c2oc3c(C)ccc(C(=O)[*:1])c3nc-2c(C(=O)[*:2])c(N)c1=O; NMeV = CN[C@H](C(=O)O)C(C)C; Sar = CNCC(=O)O

On to `Cc1c2oc3c(C)ccc(C(=O)N[C@@H]4C(=O)N[C@H](C(C)C)C(=O)N5CCC[C@H]5C(=O)N(C)CC(=O)N(C)[C@@H](C(C)C)C(=O)O[C@@H]4C)c3nc-2c(C(=O)N[C@@H]2C(=O)N[C@H](C(C)C)C(=O)N3CCC[C@H]3C(=O)N(C)CC(=O)N(C)[C@@H](C(C)C)C(=O)O[C@@H]2C)c(N)c1=O` [Actinomycin D, reference compound] (I: T[dV]P[Sar][NMeV] / II: T[dV]P[Sar][NMeV]; ester I:1-I:C, II:1-II:C; linker I:N-II:N via Actinocin(9to1)), for which the “Percent toxicity on K-562 cells” value in data set [1] (100 ng/ml) is on record as roughly 100%.

As for `CC1=C(O)C(=O)C(C2=C(O)C(=O)C(C)=C(O)C2=O)=C(O)C1=O` [Oosporein], the “Percentage of plants with telia” value was 83% in data set [2] and “higher percentage of plants with telia” in data set [2] (listed as Ooosporein). Moreover, the “Telia intensity Rating” value in data set [2] is reported as 8.2; in data set [2] (listed as Ooosporein), “greater intensity of telia”. Besides, the “toxicity on K-562 cells” value is “no toxicity whatsoever” in data set [1] (25 μg/ml or less); “very mild toxicity” in data set [1] (100 and 50 μg/ml). Also, in data set [3] (after application), the “time to conversion of infective urediniospores to non-infective teliospores” value is given as “with in three days of application”. The “conversion of infective urediniospores to non-infective teliospores” value in data set [3] (oat, bareley, wheat, pine and soybean rust) is “convert infective urediniospores to non-infective teliospores”.

These data come from US20070110726A1, “Rust disease control by Aphanocladium album and/or Beauveria brongniartii” (priority 2005, published 2007).
